# Results from patent US20080085273A1, “VEHICLE FOR THE TRANSPORT OF A CHOSEN MOLECULE TO A CELL” (Synvolux IP B.V., priority 2004, published 2008).
# System: Human Embryonic Kidney cells, strain 293A
# Assay: Transfection of Human Embryonic Kidney cells with CMV-GFP plasmid complexed with SAINT-molecules, GFP expression by FACS
# Format: cell-based
# Settings: 293A cells, 12 well plates; 500 ng CMV-GFP plasmid complexed with 3.75 nm SAINT molecules or linker per well; FACS 48 hours after transfection
# Description: FIG. 1 is the result of Human Embryonic Kidney cells, strain 293A, cultured in 12 well plates and are transfected with 4 combinations of SAINT-molecules (i.e. SAINT-18, SAINT-18 coupled to RGD, a mixture of SAINT-18 and SAINT-18 coupled to RGD, and SAINT-18 linker).
# Human Embryonic Kidney cells are difficult to be transfected. When using these cells, main competing transfection methods (of other manufacturers), require several micrograms of plasmid DNA for successful transfection. Combined with SAINT-18, 1 μg (per 12 wells) normally results in a transfection rate above 90%. To be able to visualize the enhancing effect of the targeting moiety SAINT-18-RGD, in this protocol we used a low amount of plasmid DNA (500 ng per 12 wells). The structural formula of SAINT-linker-RGD is depicted in […]. In addition, an RGD-peptide is coupled to the SATA-group of the SAINT-Linker, as described in the present invention. The RGD group is a targeting moiety for the integrin receptor family and is though to increase the transfection efficacy. Human Embryonic Kidney cells, strain 293A, are cultured in 12 well plates and are transfected with 4 combinations of Saint-molecules (i.e. SAINT-18, SAINT-18 coupled to RGD, a mixture of SAINT-18 and SAINT-18 coupled to RGD, and only a linker molecule as a reference). […] 48 hours after transfection GFP expression is measured by FACS analysis. […]
structure (smiles),measurement,value
CCCCCCCC/C=C\CCCCCCCCC(CCCCNC(=O)C1CCC(CN2C(=O)CC(SCC(=O)NC(=N)NCCCC(C)C(=O)NCC(=O)NC(CC(=O)O)C(=O)O)C2=O)CC1)c1cc[n+](C)cc1.[Cl-] (stereo not shown) [S18/RGD],"transfection ability (percentage of GFP positive cells, FIG. 1, result in words)",able to transfect cells
